This note sets out measurements from patent US7160733B2, “Ligand specific to β2-glycoprotein I and use thereof” (priority 2001, dated 2007).

Assay [1] addresses T1, β2-GPI (Homo sapiens, UniProt P02749).
T1 construct: β2-GPI was purified from normal human plasma as described in [35] with slight modification; from tissue; host or cells: pooled normal human plasma from healthy subjects
T1 sequence (P02749 20-345): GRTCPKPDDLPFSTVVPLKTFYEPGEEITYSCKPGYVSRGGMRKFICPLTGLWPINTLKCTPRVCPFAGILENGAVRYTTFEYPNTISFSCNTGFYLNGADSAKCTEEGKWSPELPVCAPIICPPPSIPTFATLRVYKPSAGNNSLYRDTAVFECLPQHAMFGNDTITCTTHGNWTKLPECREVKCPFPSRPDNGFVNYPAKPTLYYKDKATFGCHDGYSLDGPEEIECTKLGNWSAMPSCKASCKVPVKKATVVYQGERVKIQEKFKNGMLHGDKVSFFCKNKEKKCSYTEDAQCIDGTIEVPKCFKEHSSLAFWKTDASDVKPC
Nature of the assay: Optical biosensor (IAsys): binding to solid phase β2-GPI. The note with it: result in words. From the text:
(§1) FIG. 1. Molecular interactions among β2-GPI, LDLs, […] (PLs), and anti-β2-GPI autoantibody, detected by an optical biosensor. • A: LDL (open square) or oxLDL (closed square) binding to solid phase β2-GPI; • B: LDL (open square) or oxLDL (closed square) binding to solid phase WB-CAL-1 in the presence of β2-GPI; • C: DOPE (open circle) or CL (closed circle) binding to solid phase β2-GPI; and • D: DOPE (open circle) or CL (closed circle) binding to solid phase WB-CAL-1 in the presence of β2-GPI.
(§2) Real-time molecular analysis was performed using an optical biosensor, IAsys (product of Affinity Sensors).
(§3) Binding of β2-GPI to LDLs or liposomes: Biotinyl-β2-GPI was immobilized on a biotinyl-cuvette via streptavidin. LDLs or liposomes at various concentrations were placed in the cuvette. Antibodies binding to LDLs or liposomes: The biotinyl-WB-CAL-1 was immobilized on the cuvette. LDLs or liposomes were added at various concentrations in the presence (10 μg/mL) or absence of β2-GPI.

Assay [2] has as its system WB-CAL-1. Nature of the assay: Optical biosensor (IAsys): binding to solid phase WB-CAL-1 in the presence of β2-GPI. Also on record: species or system mouse. As to conditions: β2-GPI 10 μg/mL, result in words.
Source text: as §1, §2, §3

Assay [3] addresses T1, β2-GPI. Kind of assay: ELISA on solid-phase lipid (ligand)-coated plate: β2-GPI binding detected with Cof-22. The note with it: Experiment 1; Absorbance, mean ± SD, n = 3; solid-phase lipid, β2-GPI 15 μg/mL. As for the experimental part: (§4) Binding to extracted lipids: A microtiter plate (Immulon 1B, Dynex Technologies Inc.) was coated with lipids extracted from LDLs (50 μg/mL, 50 μL/well) by ethanol evaporation. The wells were blocked with PBS containing 1% BSA for one hour and the wells were incubated with 30 μg/mL of β2-GPI for one hour. Then, β2-GPI binding was detected using Cof-22 and HRP-labeled anti-mouse IgG antibodies. Alternatively, an anti-β2-GPI autoantibody (Cof-22, WB-CAL-1, or EY2C9) was diluted with a 0.3% BSA-containing PBS, and the diluted antibody was added to the coated plate (1.0 μg/mL, 100 μL/well) and incubated with β2-GPI (15 μg/mL) for one hour. The binding of the antibody was detected by an HRP-labeled anti-mouse IgG /or an anti-human IgM. The color was developed with H2O2 and o-phenylenediamine, and OD was measured at 490 nm. Between these steps, extensive washing were done using PBS containing 0.05% Tween 20.
(§5) Synthesized oxLig-1 (50 μg/mL, 50 μL/well) was adsorbed by evaporation on a polystyrene plate (Immulon 1B; Dynex Technologies Inc.), and the plate was then blocked with 1% BSA. Serum samples (diluted 1:100 with PBS containing 0.3% BSA) were incubated in the wells with β2-GPI (15 μg/mL) or other proteins for one hour at room temperature. Antibody binding was detected with HRP-labeled anti-human IgG. Further steps were performed through a method as described in “anti-β2-GPI ELISA.”
(§6) CL (50 μg/mL, 50 μL/well) was adsorbed on a polystyrene plate (Immulon 1B), and further steps were performed through a method as described in “ELISA for antibodies against a protein-oxLig-1 complex.”
A general note: In an ELISA, binding on a coated surface is turned into a signal by an enzyme label.

For assay [4], the system named is WB-CAL-1. Nature of the assay: ELISA on solid-phase lipid (ligand)-coated plate: WB-CAL-1 binding in presence of β2-GPI. Also on record: species or system mouse. As to conditions: Absorbance, mean ± SD, n = 3. On the procedure:
as §4, §5, §6

A further assay has as its system EY2C9. Nature of the assay: ELISA on solid-phase lipid (ligand)-coated plate: EY2C9 binding in presence of β2-GPI. Also on record: species or system human. As to conditions: Absorbance, mean ± SD, n = 3. As for the experimental part: as §4, §5, §6
Another assay concerns APS-1. Nature of the assay: ELISA on solid-phase lipid-coated plate: binding of antibodies of APS patient serum APS-1. Also on record: species or system human. The note with it: Absorbance, mean ± SD, n = 3. On the procedure: (§7) To eliminate endogenous β2-GPI in some experiments, serum samples were passed through a heparin-Sepharose column. The effluent was dialyzed against PBS and was used for ELISAs.
as §5, §6

Another assay has as its system APS-2. Kind of assay: ELISA on solid-phase lipid-coated plate: binding of antibodies of APS patient serum APS-2. As to conditions: Absorbance, mean ± SD, n = 3. Also on record: species or system human. As for the experimental part:
as §7, §5, §6

Another assay deals with anti-β2-GPI antibodies. Kind of assay: ELISA of the anti-β2-GPI antibodies by use of a ligand-coated plate (results in words). Type of assay: binding. As for the experimental part: as §4, §5
In assay [5] the test system is β2-GPI. Nature of the assay: ELISA on solid-phase lipid (ligand)-coated plate: β2-GPI binding detected with Cof-22. Further details: species or system human. The note with it: Experiment 2; Absorbance, mean ± SD, n = 3; synthesized oxLig-1-solidified plate, added protein 15 μg/mL. As for the experimental part:
as §4, §5, §6

[6] abbreviates: Experiment 1, solid-phase lipid, β2-GPI 15 μg/mL.
The mark [7] stands for this setting: Experiment 1, solid-phase lipid, β2-GPI 15 μg/mL, serum with β2-GPI removed.
The mark [8] stands for this setting: Experiment 2, synthesized oxLig-1-solidified plate, added protein 15 μg/mL.

As for `CCCCCCCC/C=C\CCCCCCCC(=O)OC[C@H](COP(=O)(O)OCCN)OC(=O)CCCCCCC/C=C\CCCCCCCC` [DOPE], the “binding to solid phase β2-GPI” value on β2-GPI [1] is on record as “did not show any specific binding”. Further, the “binding to solid phase WB-CAL-1 in the presence of β2-GPI” value in the assay with WB-CAL-1 [2] was “did not”.
Regarding Cardiolipin [CL, reference compound], at β2-GPI [3], the “Binding of β2-GPI-dependent aCL, Cof-22” value is given as 1.132 ± 0.025. The “Binding of β2-GPI-dependent aCL, WB-CAL-1” value in the assay with WB-CAL-1 [4] (setting [6]) came out at 1.361 ± 0.008. Besides, the “Binding of β2-GPI-dependent aCL, EY2C9” value in the assay with EY2C9 (setting [6]) is recorded as 1.269 ± 0.014. In the assay on APS-1 (setting [7]), the “Binding of β2-GPI-dependent aCL, APS-1” value is given as 2.099 ± 0.216. In the assay on APS-2 (setting [7]), the “Binding of β2-GPI-dependent aCL, APS-2” value was 1.282 ± 0.041. The “cross-reaction of autoantibodies derived from APS with β2-GPI complexed with lipid” value in the assay with anti-β2-GPI antibodies (result in words) is recorded as “cross-reacted”. Further, the “binding to solid phase β2-GPI” value at β2-GPI [1] is on record as “large extent of binding”. Also, the “binding to solid phase WB-CAL-1 in the presence of β2-GPI” value in the assay with WB-CAL-1 [2] is listed as “dose-dependent binding”.
Regarding “Haptoglobin: protein having sushi domains, without PL binding property”, the “Binding of protein-dependent oxLig-1 antibody, Cof-22” value with β2-GPI [5] is on record as 0.049 ± 0.001. Also, in the assay with WB-CAL-1 [4] (setting [8]), the “Binding of protein-dependent oxLig-1 antibody, WB-CAL-1” value was determined as 0.006 ± 0.001. Also, in the assay on EY2C9 (setting [8]), the “Binding of protein-dependent oxLig-1 antibody, EY2C9” value came out at 0.006 ± 0.001. Further, in the assay with APS-1 (setting [8]), the “Binding of protein-dependent oxLig-1 antibody, APS-1” value is recorded as 0.018 ± 0.011. For the same compound, the “Binding of protein-dependent oxLig-1 antibody, APS-2” value with APS-2 (setting [8]) is given as 0.015 ± 0.002. Moreover, in the assay with anti-β2-GPI antibodies (Exp-2, result in words), the “antibody binding to solid-phase oxLig-1 provided by added protein” value is “no antibody binding”.
